# Data from paper PMC5320487, “Intrinsic Peroxidase-like Activity of Ficin” (Scientific Reports, 2017).
# Tested on: Ficin
# Experiment: absorbance at […] nm, steady-state kinetics, Michaelis-Menten fit
# Format: biochemical
# Conditions: peroxidase-like activity; 0.80 mM H2O2, 20 mM phosphate buffer pH 5.0, 35 °C; ping-pong
smiles,measurement,value
Cc1cc(-c2cc(C)c(N)c(C)c2)cc(C)c1N [TMB],Km,0.19 ± 0.012 mM
